Here are results for 27 compounds from patent US11180483B2, “Substituted reverse pyrimidine Bmi-1 inhibitors” (PTC Therapeutics, Inc., priority 2012, dated 2021).

Usually EC50 stands for the concentration that produces a half-maximal response. Low values mean higher potency in that assay, high ones lower potency in that assay.

This experiment deals with Bmi-1. In words: Sandwich ELISA Assay (Bmi-1 ELISA) in HT-1080 cells. The experiment is classed as cell-based. The protocol: Cell Seeding and Compound Treatment (Day 1):
HT-1080 cells were seeded at 8000 cells/well (50 μL) in 96-well tissue culture plates. After the cells became adherent (3-4 hours), 2× diluted stocks of test compounds in 50 μL DMEM containing 1% DMSO (final DMSO concentration was 0.5%) were added and the plates were incubated at 37° C. under 5% CO2 for 40-48 hours.
ELISA Plate First Antibody Preparation (Day 2):
The First Antibody (Millipore Mouse, monoclonal to mouse Bmi-1, clone F6, catalog #05-637) diluted to 2 μg/mL in PBS was added (100 μL) to each well of a Nunc MaxiSorp 96-well ELISA plate. The plate was covered with a plate seal and allowed to stand overnight.
Cell Lysate Preparation (Day 3):
Fresh 1× Lysis buffer was prepared on the day of the assay as follows: 1 mM EDTA, 150 mM NaCl, 0.5% Triton-X 100, 10 mM NaF, 20 mM B-Glycerophosphate, 1 mM DTT (in PBS, pH 7.2-7.4) and 1× HALT protease inhibitor cocktail (Pierce #78410).
The 1× Lysis Buffer (40 μL) was added to each well and the plate was shaken for 5-10 minutes on an orbital shaker to allow cell lysis, then diluent (1% BSA in PBS in 0.5% NP40) (100 μL) was added to each well.
A standard curve was prepared at the following Bmi-1 concentrations: 8000, 4000, 2000, 1000, 500, 250, 125, 0 pg/mL The Bmi-1 Recombinant Protein Standard (Novus Biologicals PCGF4 Recombinant Protein (P01), catalog #H00000648-P01) used to prepare the standard curve was stored at −80° C. On first thaw, the Bmi-1 Recombinant Protein Standard was diluted to […] in Blocking Buffer (1% BSA in PBS; BSA: Fisher Scientific Catalog #1600-100). Aliquots were taken and refrozen at −80° C. The aliquots may be kept at 4° C. and reused after first thaw, but only within 1-2 weeks. The Bmi-1 Recombinant Protein Standard contains a GST-fusion tag that appears around 70 Kda on Western Blot.
The prepared ELISA plate was washed 3× with Wash Buffer (0.05% Tween-20 in PBS). The final wash was removed from the plate and the plate was blotted dry. Blocking Buffer (300 μL) (1% BSA in PBS) was added to each well. The plate was covered with a plate seal and incubated at room temperature for 1 hour. The blocked plate was washed 3× with Wash Buffer, then the final wash was removed and the plate was blotted dry. The previously prepared samples and standards were added (100 μL/well) and the plate was covered with a plate seal and incubated at 4° C. overnight.
The prepared ELISA plate was removed from 4° C., incubated at room temperature for 30 minutes, then washed and blotted dry as previously described for Day 3. The Second Antibody (Cell Signaling Rabbit anti-Bmi-1, Cat #2830) diluted to 1:600 in Blocking Buffer was added (100 μL) to each well, except as needed for background control wells. The plate was covered with a plate seal and incubated for 1.5 hrs at room temperature.
The ELISA plate was washed and blotted dry as previously described. The Third Antibody (Cell Signaling HRP conjugated anti-rabbit IgG (CellSignaling, Cat #:7074) diluted to 1:300 in Blocking Buffer was added (100 μL) to each well, except as needed for background control wells. The plate was incubated for 1 hr at room temperature.
The plate was washed and blotted dry as previously described, then prepared TMB substrate (TMB substrate kit, Pierce catalog #34021) (prepared by mixing kit reagents 1:1) (100 μL) was added per well. The plate was incubated for 20-30 minutes at room temperature in the dark, then Stop Solution (2 M sulfuric acid in water) (50 μL) was added per well. The plates were read at OD450 (experimental) and OD570 (reference).
Regarding `Cc1nc2ccccc2n1-c1nc(NCCO)cc(Nc2ccc(C(F)(F)F)cc2)n1` [Cpd 57, 2-{[2-(2-methyl-1H-benzimidazol-1-yl)-6-{[4-(trifluoromethyl)phenyl]amino}pyrimidin-4-yl]amino}ethanol], the EC50 lay within 100 to 3000 nM.
In the case of `COCCNc1cc(Nc2ccc(C(F)(F)F)cc2)nc(-n2c(C)nc3ccccc32)n1` [Cpd 58, N^4-(2-methoxyethyl)-2-(2-methyl-1H-benzimidazol-1-yl)-N^6-[4-(trifluoromethyl)phenyl]pyrimidine-4,6-diamine] it was 100 to 3000 nM.
`COCCNc1cc(Nc2ccc(OC(F)F)cc2)nc(-n2c(C)nc3ccccc32)n1` [Cpd 59, N^4-[4-(difluoromethoxy)phenyl]-N^6-(2-methoxyethyl)-2-(2-methyl-1H-benzimidazol-1-yl)pyrimidine-4,6-diamine] displayed an EC50 of 100 to 3000 nM.
With `COc1ccc(Nc2ccnc(-c3c(C(F)(F)F)nn4ccccc34)n2)cc1` [Cpd 60, N-(4-methoxyphenyl)-2-[2-(trifluoromethyl)pyrazolo[1,5-a]pyridin-3-yl]pyrimidin-4-amine] the figure was 10 to 100 nM.
With `Cc1nc2ccccc2n1-c1nccc(Nc2ccc(OC(F)F)cc2)n1` [Cpd 61, N-[4-(difluoromethoxy)phenyl]-2-(2-methyl-1H-benzimidazol-1-yl)pyrimidin-4-amine] the figure was 100 to 3000 nM; with `Cc1ccc(Nc2ccnc(-c3c(C(F)(F)F)nc4cnccn34)n2)cc1` [Cpd 62, N-(4-methylphenyl)-2-[2-(trifluoromethyl)imidazo[1,2-a]pyrazin-3-yl]pyrimidin-4-amine], 10 to 100 nM.
With `Cc1nc2ccccc2n1-c1nc(N)cc(Nc2ccc(C(F)(F)F)cc2)n1` [Cpd 63, 2-(2-methyl-1H-benzimidazol-1-yl)-N-[4-(trifluoromethyl)phenyl]pyrimidine-4,6-diamine] the figure was 10 to 100 nM.
Compound `Cc1nc2cc(F)c(F)cc2n1-c1nc(N)cc(Nc2ccc(C(F)(F)F)cc2)n1` [Cpd 64, 2-(5,6-difluoro-2-methyl-1H-benzimidazol-1-yl)-N-[4-(trifluoromethyl)phenyl]pyrimidine-4,6-diamine] had a half-maximal effective concentration (EC50) of 10 to 100 nM.
In turn, `Nc1cc(Nc2ccc(OC(F)F)cc2)nc(-c2c(C(F)(F)F)nc3ccccn23)n1` [Cpd 65, N-[4-(difluoromethoxy)phenyl]-2-[2-(trifluoromethyl)imidazo[1,2-a]pyridin-3-yl]pyrimidine-4,6-diamine] showed an EC50 of 10 to 100 nM.
With `Cc1nc2ccc(F)cn2c1-c1nc(N)cc(Nc2ccc(C(F)(F)F)cc2)n1` [Cpd 68, 2-(6-fluoro-2-methylimidazo[1,2-a]pyridin-3-yl)-N-[4-(trifluoromethyl)phenyl]pyrimidine-4,6-diamine] the figure was 10 to 100 nM.
In the case of `Cc1nc2ccc(F)cc2n1-c1nc(N)cc(Nc2ccc(C(F)(F)F)cc2)n1` [Cpd 71, 2-(6-fluoro-2-methyl-1H-benzimidazol-1-yl)-N-[4-(trifluoromethyl)phenyl]pyrimidine-4,6-diamine] it was 10 to 100 nM; in that of `Cc1nc2ncccc2n1-c1nc(N)cc(Nc2ccc(C(F)(F)F)cc2)n1` [Cpd 73, 2-(2-methyl-1H-imidazo[4,5-b]pyridin-1-yl)-N-[4-(trifluoromethyl)phenyl]pyrimidine-4,6-diamine], 10 to 100 nM; in that of `Cc1nc2cc(F)c(F)cc2n1-c1nc(N)cc(Nc2ccc(C(F)(F)F)c(F)c2)n1` [Cpd 74, 2-(5,6-difluoro-2-methyl-1H-benzimidazol-1-yl)-N-[3-fluoro-4-(trifluoromethyl)phenyl]pyrimidine-4,6-diamine], 100 to 3000 nM.
In the case of `Cc1cc2nc(C)n(-c3nc(N)cc(Nc4ccc(C(F)(F)F)cc4)n3)c2cc1C` [Cpd 79, N-[4-(trifluoromethyl)phenyl]-2-(2,5,6-trimethyl-1H-benzimidazol-1-yl)pyrimidine-4,6-diamine] it was 100 to 3000 nM; in that of `Cc1nc2ccccc2n1-c1nc(N)cc(Nc2ccc(C(F)(F)F)c(F)c2)n1` [Cpd 80, N-[3-fluoro-4-(trifluoromethyl)phenyl]-2-(2-methyl-1H-benzimidazol-1-yl)pyrimidine-4,6-diamine], 10 to 100 nM.
Compound `Nc1cc(Nc2ccc(C(F)(F)F)cc2)nc(-n2c(C3CC3)nc3ccc(F)cc32)n1` [Cpd 82, 2-(2-cyclopropyl-6-fluoro-1H-benzimidazol-1-yl)-N-[4-(trifluoromethyl)phenyl]pyrimidine-4,6-diamine] came in with an EC50 of 10 to 100 nM.
With `Nc1cc(Nc2ccc(C(F)(F)F)cc2)nc(-n2c(C3CC3)nc3cc(F)ccc32)n1` [Cpd 83, 2-(2-cyclopropyl-5-fluoro-1H-benzimidazol-1-yl)-N-[4-(trifluoromethyl)phenyl]pyrimidine-4,6-diamine] the figure was 10 to 100 nM.
With `Nc1cc(Nc2ccc(C(F)(F)F)cc2)nc(-c2c(CO)nc3ccc(F)cn23)n1` [Cpd 84, [3-(4-amino-6-{[4-(trifluoromethyl)phenyl]amino}pyrimidin-2-yl)-6-fluoroimidazo[1,2-a]pyridin-2-yl]methanol] the figure was 100 to 3000 nM.
With `Cc1nc2ccc(Br)cc2n1-c1nc(N)cc(Nc2ccc(C(F)(F)F)cc2)n1` [Cpd 85, 2-(6-bromo-2-methyl-1H-benzimidazol-1-yl)-N-[4-(trifluoromethyl)phenyl]pyrimidine-4,6-diamine] the figure was 100 to 3000 nM; with `Cc1ccc2nc(C)n(-c3nc(N)cc(Nc4ccc(C(F)(F)F)cc4)n3)c2c1` [Cpd 86, 2-(2,6-dimethyl-1H-benzimidazol-1-yl)-N-[4-(trifluoromethyl)phenyl]pyrimidine-4,6-diamine], 10 to 100 nM; with `CCc1ccc2nc(C)n(-c3nc(N)cc(Nc4ccc(C(F)(F)F)cc4)n3)c2c1` [Cpd 87, 2-(6-ethyl-2-methyl-1H-benzimidazol-1-yl)-N-[4-(trifluoromethyl)phenyl]pyrimidine-4,6-diamine], 100 to 3000 nM.
As to `Cc1nc2c(F)cc(F)cc2n1-c1nc(N)cc(Nc2ccc(C(F)(F)F)cc2)n1` [Cpd 88, 2-(4,6-difluoro-2-methyl-1H-benzimidazol-1-yl)-N-[4-(trifluoromethyl)phenyl]pyrimidine-4,6-diamine], the EC50 was 10 to 100 nM.
The compound `Cc1nc2c(F)cc(F)cc2n1-c1nc(N)cc(Nc2ccc(C(F)(F)F)c(F)c2)n1` [Cpd 89, 2-(4,6-difluoro-2-methyl-1H-benzimidazol-1-yl)-N-[3-fluoro-4-(trifluoromethyl)phenyl]pyrimidine-4,6-diamine] displayed an EC50 of 100 to 3000 nM.
As to `Cc1nc2c(F)cc(F)cc2n1-c1nc(NCCO)cc(Nc2ccc(C(F)(F)F)cc2)n1` [Cpd 90, 2-{[2-(4,6-difluoro-2-methyl-1H-benzimidazol-1-yl)-6-{[4-(trifluoromethyl)phenyl]amino}pyrimidin-4-yl]amino}ethanol], the EC50 lay within 100 to 3000 nM.
In the case of `C=Cc1ccc2nc(C)n(-c3nc(N)cc(Nc4ccc(C(F)(F)F)cc4)n3)c2c1` [Cpd 91, 2-(6-ethenyl-2-methyl-1H-benzimidazol-1-yl)-N-[4-(trifluoromethyl)phenyl]pyrimidine-4,6-diamine] it was 100 to 3000 nM; in that of `Nc1cc(Nc2ccc(C(F)(F)F)cc2)nc(-n2c(C3CC3)nc3ncc(F)cc32)n1` [Cpd 92, 2-(2-cyclopropyl-6-fluoro-1H-imidazo[4,5-b]pyridin-1-yl)-N-[4-(trifluoromethyl)phenyl]pyrimidine-4,6-diamine], 10 to 100 nM.
In the case of `Cc1nc2ccc(Cl)cc2n1-c1nc(N)cc(Nc2ccc(C(F)(F)F)cc2)n1` [Cpd 93, 2-(6-chloro-2-methyl-1H-benzimidazol-1-yl)-N-[4-(trifluoromethyl)phenyl]pyrimidine-4,6-diamine] it was 10 to 100 nM.
